This note sets out measurements from BindingDB's records for doi:10.1021/ml300214g (2012).

SMILES strings stand for the structures.

The nature of the experiment: Inhibition of CSF1R in mouse M-NFS-60 cells assessed as inhibition of cell proliferation after 72 hrs by Celltiter-Blue assay.

Turning to `CN1C(C)(C)CC(Oc2ccc(C(=O)Nc3ccc(NC(=O)Nc4cc(C(C)(C)C)on4)cc3)nc2)CC1(C)C`, the IC50 is 50.4 nM.
As for `CCN1C(C)(C)CC(Oc2ccc(C(=O)Nc3ccc(NC(=O)Nc4cc(C(C)(C)C)on4)cc3)nc2)CC1(C)C`, the figure is 46.3 nM; as for `CC(C)(C)c1cc(NC(=O)Nc2ccc(NC(=O)c3ccc(OC4CCN(C5CC5)CC4)cn3)cc2)no1`, 150 nM.
As for `CC(C)(C)c1cc(NC(=O)Nc2ccc(NC(=O)c3ccc(OC4CCN(C(C)(C)C)CC4)cn3)cc2)no1`, the figure is 64.4 nM; as for `CC(C)N1CCC(Oc2ccc(C(=O)Nc3ccc(NC(=O)Nc4cc(C(C)(C)C)on4)cc3)nc2)CC1`, 78 nM.
As for `Cc1ccc(C(=O)Nc2ccc(NC(=O)Nc3cc(C(C)(C)C)on3)cc2)nc1`, the figure is 223 nM; as for `Cc1ccnc(C(=O)Nc2ccc(NC(=O)Nc3cc(C(C)(C)C)on3)cc2)c1`, 63.9 nM; as for `CC1(C)CC(Oc2ccc(C(=O)Nc3ccc(NC(=O)Nc4cc(C(C)(C)C)on4)cc3)nc2)CC(C)(C)N1`, 74.7 nM.
